Measured values as given in article PMC5393024, “Discovery and characterization of natural tropolones as inhibitors of the antibacterial target CapF from Staphylococcus aureus” (Scientific Reports, 2015).

Key:
[1] = target: holo-CapF (reconstituted with Zn^2+) (Staphylococcus aureus, UniProt A0A0H3JP37); experiment: ITC binding to CapF reconstituted with Zn2+ (holo-CapF)
Source text: Because tropolone and its analogs have been described as metal chelators in proteins, we anticipated that binding of the inhibitor to CapF is governed by the Zn^2+ ion present in the cupin domain[12]. To confirm this hypothesis, we performed two different types of experiments. First, we determined the binding properties of 3-isopropenyl-tropolone to apo-CapF (i.e. Zn^2+-depleted CapF) and to holo-CapF (reconstituted with Zn^2+) by isothermal titration calorimetry (ITC). The stoichiometry is consistent with a 1:1 binding model.
Figure 3 Binding of 3-isopropenyl-tropolone to CapF requires Zn^2+. CapF (150 μM) reconstituted with Zn^2+ was titrated with 1.65 mM inhibitor in the absence (a) or the presence (b) of 1 mM EDTA. The upper panels correspond to the titration data, and the lower panels to the integrated binding isotherms. (c) Binding competition assay. CapF (1.0 μM) reconstituted with Zn^2+ in the presence of the Zn^2+-sensitive dye FluoZin-3 (1.0 μM) was titrated with 3-isopropenyl-tropolone (λEX = 490 nm; λEM = 520 nm).
Binding constants and thermodynamic parameters of the interaction between CapF and fragment compounds were determined with an iTC200 instrument (GE Healthcare) at 25 °C. Samples were equilibrated in a buffer composed of 10 mM HEPES (pH 7.4) and 150 mM NaCl supplemented with 5% (v/v) DMSO. CapF at 150–270 μM was titrated with compounds at 0.5–1.65 mM. Analysis of the data was performed with ORIGIN7 using a one-site binding model.
Figure S8. Binding isotherms of compounds with CapF as determined by ITC. (a) tropone, (b) 2-Cl-tropone, (c) tropolone, (d) 4-isopropyl-tropolone. Concentration of CapF in the cell was 150 µM, except in panel (a) where it was 270 µM. Concentration of compounds was 1.65 mM, except in panel (a) where it was 0.5 mM. Titrations were performed in an iTC200 instrument at 25 °C.
Data analysis was carried out with ORIGIN.

CapF [2] = experiment: HPLC-based inhibition assay (CapE/CapF coupled reaction); assay type: biochemical, Staphylococcus aureus; conditions: 1 mM compound, 37 °C, 2 hours
Description: For that purpose, an HPLC-based assay monitoring the consumption of substrate and the appearance of product was employed (Fig. 2b)[12]. Whereas in the absence of 3-isopropenyl-tropolone the substrate was converted into product with nearly quantitative yield (91%), in the presence of 1 mM 3-isopropenyl-tropolone the peaks corresponding to substrate and product were largely absent (their combined areas were <18%). Instead, a large peak corresponding to the byproduct generated by the enzyme CapE under thermodynamic control was observed (80% yield as judged from the area under the curve). To confirm that inhibition of 3-isopropenyl-tropolone is specific for CapF we performed an additional experiment employing only CapE, which is the enzyme generating the substrate for CapF in the functional assay (Supplementary Information Figure S2).
For the HPLC-based inhibition assay, a solution containing 1.0 μM CapE, 0.02 μM CapF, 250 μM UDP-D-GlcNAc, 250 μM NADPH, and 1 mM compound in HBS buffer supplemented with 0.005% (v/v) Tween-20 and 5% (v/v) DMSO were incubated at 37 °C for 2 hours. The reaction was stopped by addition of 100 μL of ice-cold phenol/chloroform/isoamyl alcohol in a 25:24:1 […]. The supernatant containing the products of the reaction was mixed with 100 μL of chloroform and examined by HPLC using a CarboPac PA1 anion-exchange column (Dionex) as described previously. […]

CapF [3] = experiment: NADPH consumption assay (absorbance at 340 nm); assay type: biochemical, Staphylococcus aureus; conditions: 0.02 μM CapF, 1.0 μM CapE, 125 μM UDP-D-GlcNAc, 250 μM NADPH, 37 °C
Description: A second assay monitoring the consumption of NADPH corroborates the inhibitory effect of 3-isopropenyl-tropolone (Fig. 2c). This assay is sensitive to the NADPH consumed by the SDR domain during the second reaction catalyzed by CapF (reduction step). […] Nevertheless, additional experiments were required to corroborate that idea (see below).
The enzymatic performance of CapF was evaluated by examining the consumption of NADPH spectrophotometrically, or by monitoring the disappearance of substrate and the formation of product by HPLC[9][12]. First, the time-dependent consumption of NADPH (monitored from a decrease of adsorption at 340 nm) was carried out in 384-well plates at a final volume of 50 μL. The solution contained 1.0 μM CapE, 0.02 μM CapF, 125 μM UDP-D-GlcNAc (substrate), 250 μM NADPH and fragment compounds at various concentrations in HBS supplemented with 0.005% (v/v) Tween-20 and 5% (v/v) DMSO. Each reaction mixture was incubated at 37 °C and the absorption at 340 nm was measured with a plate reader (PHERAstar, BMG Labtech, Durham, NC).
Figure S7. (a) Structure of compounds employed. (b-d) Time course of NADPH consumption by CapF in the presence of (b) tropolone, (c) 4-isopropyl-tropolone, and (d) 2-Cl-tropone. Increasing the concentration of compounds decreases the rate of consumption of NADPH. (e-g) Inhibition after two hours for (e) tropolone, (f) 4-isopropyl-tropolone, and (g) 2-Cl-tropone. Concentration of CapE and CapF was 1.0 µM and 0.02 µM, respectively. Concentration of NADPH and UDP-D-GlcNAc was 250 µM and 125 µM, respectively. The change of absorbance was calculated with respect to a control assay in the absence of CapF.
(§1) (1 picture or pasted object on this page, not shown here)

CapFΔ57-70 = experiment: DSC thermal stability of CapFΔ57-70; assay type: binding, Staphylococcus aureus; conditions: 24 μM protein, 240 μM inhibitor
Description: Thermal stability of CapF was examined by DSC in a ultrasensitive VP-capillary micro-calorimeter (Microcal). Prior to the experiment the protein was equilibrated in a buffer composed of 50 mM HEPES (pH 7.5), 50 mM NaCl and 5% DMSO. The concentration of protein and inhibitor were adjusted to 24 μM and 240 μM, respectively. The samples were heated between 10 and 110 °C at a scan rate of 1 °C/min. Data analysis was carried out with ORIGIN7 using a two-state transition model.
Figure S6. Thermal stability of CapF examined with DSC. (a) CapFΔ57-70, and (b) CapFΔ57-70
in the presence of 3-isopropenyl-tropolone. Concentration of CapF and inhibitor was 24 µM and
240 µM, respectively. Experimental data and fitting curves are represented in black and red lines,
as §1

Sequence of holo-CapF (reconstituted with Zn^2+) (A0A0H3JP37 entry or part of it): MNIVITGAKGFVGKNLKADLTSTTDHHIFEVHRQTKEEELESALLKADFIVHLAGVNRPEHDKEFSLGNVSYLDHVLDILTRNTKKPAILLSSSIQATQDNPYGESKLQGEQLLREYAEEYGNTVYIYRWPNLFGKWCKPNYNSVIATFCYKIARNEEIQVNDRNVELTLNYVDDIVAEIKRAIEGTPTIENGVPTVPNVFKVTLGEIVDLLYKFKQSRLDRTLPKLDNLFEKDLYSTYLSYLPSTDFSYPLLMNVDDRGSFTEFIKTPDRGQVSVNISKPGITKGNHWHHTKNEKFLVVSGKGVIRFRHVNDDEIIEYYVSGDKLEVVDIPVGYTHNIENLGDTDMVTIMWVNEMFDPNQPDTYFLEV

With `C=C(C)c1ccccc(=O)c1O` [3-isopropenyl-tropolone] the Kd [1] was 27 ± 12 µM, the “n (binding stoichiometry)” value ([1]; ITC, 25 °C) was 1.2 ± 0.1 and the “ΔH°” value ([1]; ITC, 25 °C) was -3.4 ± 0.9 kcal/mol. For the same molecule, the “−TΔS°” value ([1]; ITC, 25 °C) was -2.8 ± 1.1 kcal/mol, the “ligand efficiency (LE = −ΔG/HAC)” value ([1]; from ITC binding free energy) was 0.52 kcal/mol and the “yield of byproduct generated by CapE (area under the curve)” value (CapF [2]) was 80%. For the same molecule, the “combined areas of substrate and product peaks” value (CapF [2]; 91% product without inhibitor) was less than 18%, the “inhibition of NADPH consumption” value (CapF [3]) was “rate of consumption of NADPH slowed down as the concentration of inhibitor increases” and the “inhibition of NADPH consumption” value (CapF [3]; listed as 3-isopropylen-tropolone) was “inhibited the consumption of NADPH in a concentration-dependent basis”. The “ΔTM (decrease in thermal stability)” value (CapFΔ57-70) was 6.3 ± 0.2 °C and the TM (CapFΔ57-70; CapFΔ57-70 alone 60.7 ± 0.1) was 54.4 ± 0.1 °C.
